Measured values taken from patent US8653041B2, “Antibacterial aminoglycoside analogs” (Achaogen, Inc., priority 2010, dated 2014).
Converted amounts (≈) assume the structure as drawn. Read-outs that look alike come from different tables or passages of the source.

What was measured:
[1] = test system: Pseudomonas aeruginosa; experiment: MIC, CLSI broth microdilution, Pseudomonas aeruginosa panel; format: cell-based; details: Pseudomonas aeruginosa, read-out: MIC
Method: (§1) Minimum inhibitory concentrations (MIC) were determined by reference Clinical and Laboratory Standards Institute (CLSI) broth microdilution methods per M7-A7 [2006]. Quality control ranges utilizing E. coli ATCC 25922, P. aeruginosa ATCC 27853 and S. aureus ATCC 29213, and interpretive criteria for comparator agents were as published in CLSI M100-S17 [2007]. Briefly, serial two-fold dilutions of the test compounds were prepared at 2× concentration in Mueller Hinton Broth. The compound dilutions were mixed in 96-well assay plates in a 1:1 ratio with bacterial inoculum. The inoculum was prepared by suspension of a colony from an agar plate that was prepared the previous day. Bacteria were suspended in sterile saline and added to each assay plate to obtain a final concentration of 5×10^5 CFU/mL. The plates were incubated at 35 C for 20 hours in ambient air.
The MIC panel presented in Table 1 contains 27 isolates of Pseudomonas aeruginosa: strains 1-22 are clinical isolates from around the world collected between 2004-2007 which contain representative resistance mechanisms commonly found in Pseudomonas, such as the AAC(6′)-I, AAC(6′)-II, APH(3′)-IIb, ANT(2″)-I, and perm/efflux; strains 23-27 are susceptible.

[2] = test system: Acinetobacter baumannii; experiment: MIC, CLSI broth microdilution, Acinetobacter baumannii panel; format: cell-based; details: Acinetobacter baumannii, read-out: MIC
Method: as §1
The MIC panel presented in Table 2 contains 29 isolates of Acinetobacter baumannii: strains 1-24 are clinical isolates from around the world collected between 2004-2007 which contain representative resistance mechanisms commonly found in Acinetobacter baumannii, such as AAC(3)-I and II, AAC(6′)-I, ANT(2″)-I, APH(3′)-VI, and perm/efflux; strains 25-29 are susceptible.

[3] = P. aeruginosa clinical strain 1 (resistant clinical isolate)
[4] = P. aeruginosa clinical strain 2 (resistant clinical isolate)
[5] = P. aeruginosa clinical strain 3 (resistant clinical isolate)
[6] = P. aeruginosa clinical strain 4 (resistant clinical isolate)
[7] = P. aeruginosa clinical strain 5 (resistant clinical isolate)
[8] = P. aeruginosa clinical strain 6 (resistant clinical isolate)
[9] = P. aeruginosa clinical strain 7 (resistant clinical isolate)
[10] = P. aeruginosa clinical strain 8 (resistant clinical isolate)
[11] = P. aeruginosa clinical strain 9 (resistant clinical isolate)
[12] = P. aeruginosa clinical strain 10 (resistant clinical isolate)
[13] = P. aeruginosa clinical strain 11 (resistant clinical isolate)
[14] = P. aeruginosa clinical strain 12 (resistant clinical isolate)
[15] = P. aeruginosa clinical strain 13 (resistant clinical isolate)
[16] = P. aeruginosa clinical strain 14 (resistant clinical isolate)
[17] = P. aeruginosa clinical strain 15 (resistant clinical isolate)
[18] = P. aeruginosa clinical strain 16 (resistant clinical isolate)
[19] = P. aeruginosa clinical strain 17 (resistant clinical isolate)
[20] = P. aeruginosa clinical strain 18 (resistant clinical isolate)
[21] = P. aeruginosa clinical strain 19 (resistant clinical isolate)
[22] = P. aeruginosa clinical strain 20 (resistant clinical isolate)
[23] = P. aeruginosa clinical strain 21 (resistant clinical isolate)
[24] = P. aeruginosa clinical strain 22 (resistant clinical isolate)
[25] = P. aeruginosa strain 23 (susceptible)
[26] = P. aeruginosa strain 24 (susceptible)
[27] = P. aeruginosa strain 25 (susceptible)
[28] = P. aeruginosa strain 26 (susceptible)
[29] = P. aeruginosa strain 27 (susceptible)
[30] = A. baumannii clinical strain 1 (resistant clinical isolate)
[31] = A. baumannii clinical strain 2 (resistant clinical isolate)
[32] = A. baumannii clinical strain 3 (resistant clinical isolate)
[33] = A. baumannii clinical strain 4 (resistant clinical isolate)
[34] = A. baumannii clinical strain 5 (resistant clinical isolate)
[35] = A. baumannii clinical strain 6 (resistant clinical isolate)
[36] = A. baumannii clinical strain 7 (resistant clinical isolate)
[37] = A. baumannii clinical strain 8 (resistant clinical isolate)
[38] = A. baumannii clinical strain 9 (resistant clinical isolate)
[39] = A. baumannii clinical strain 10 (resistant clinical isolate)
[40] = A. baumannii clinical strain 11 (resistant clinical isolate)
[41] = A. baumannii clinical strain 12 (resistant clinical isolate)
[42] = A. baumannii clinical strain 13 (resistant clinical isolate)
[43] = A. baumannii clinical strain 14 (resistant clinical isolate)
[44] = A. baumannii clinical strain 15 (resistant clinical isolate)
[45] = A. baumannii clinical strain 16 (resistant clinical isolate)
[46] = A. baumannii clinical strain 17 (resistant clinical isolate)
[47] = A. baumannii clinical strain 18 (resistant clinical isolate)
[48] = A. baumannii clinical strain 19 (resistant clinical isolate)
[49] = A. baumannii clinical strain 20 (resistant clinical isolate)
[50] = A. baumannii clinical strain 21 (resistant clinical isolate)
[51] = A. baumannii clinical strain 22 (resistant clinical isolate)
[52] = A. baumannii clinical strain 23 (resistant clinical isolate)
[53] = A. baumannii clinical strain 24 (resistant clinical isolate)
[54] = A. baumannii strain 25 (susceptible)
[55] = A. baumannii strain 26 (susceptible)
[56] = A. baumannii strain 27 (susceptible)
[57] = A. baumannii strain 28 (susceptible)
[58] = A. baumannii strain 29 (susceptible)

NCC[C@H](O)C(=O)N[C@@H]1C[C@H](N)[C@@H](O[C@H]2O[C@H](CNCCO)[C@@H](O)C[C@H]2N)[C@H](O[C@@H]2O[C@H](CO)[C@@H](O[C@H]3O[C@@H](CN)[C@@H](O)[C@H](O)[C@H]3N)[C@H]2O)[C@H]1O [Compound 18]
MIC [1, 3]: ≤ 1 µg/mL
MIC [1, 4]: ≤ 1 µg/mL
MIC [1, 5]: 1 to 8 µg/mL (≈ 1.34 to 10.8 µM)
MIC [1, 6]: 1 to 8 µg/mL (≈ 1.34 to 10.8 µM)
MIC [1, 7]: 1 to 8 µg/mL (≈ 1.34 to 10.8 µM)
MIC [1, 8]: 1 to 8 µg/mL (≈ 1.34 to 10.8 µM)
MIC [1, 9]: ≤ 1 µg/mL
MIC [1, 10]: 8 to 16 µg/mL (≈ 10.8 to 21.5 µM)
MIC [1, 11]: 1 to 8 µg/mL (≈ 1.34 to 10.8 µM)
MIC [1, 12]: 8 to 16 µg/mL (≈ 10.8 to 21.5 µM)
MIC [1, 13]: ≤ 1 µg/mL
MIC [1, 14]: 1 to 8 µg/mL (≈ 1.34 to 10.8 µM)
MIC [1, 15]: 16 to 32 µg/mL (≈ 21.5 to 43 µM)
MIC [1, 16]: 1 to 8 µg/mL (≈ 1.34 to 10.8 µM)
MIC [1, 17]: 1 to 8 µg/mL (≈ 1.34 to 10.8 µM)
MIC [1, 18]: 1 to 8 µg/mL (≈ 1.34 to 10.8 µM)
MIC [1, 19]: 1 to 8 µg/mL (≈ 1.34 to 10.8 µM)
MIC [1, 20]: 1 to 8 µg/mL (≈ 1.34 to 10.8 µM)
MIC [1, 21]: 16 to 32 µg/mL (≈ 21.5 to 43 µM)
MIC [1, 22]: 16 to 32 µg/mL (≈ 21.5 to 43 µM)
MIC [1, 23]: 8 to 16 µg/mL (≈ 10.8 to 21.5 µM)
MIC [1, 24]: 1 to 8 µg/mL (≈ 1.34 to 10.8 µM)
MIC [1, 25]: ≤ 1 µg/mL
MIC [1, 26]: ≤ 1 µg/mL
MIC [1, 27]: ≤ 1 µg/mL
MIC [1, 28]: ≤ 1 µg/mL
MIC [1, 29]: ≤ 1 µg/mL
MIC [2, 30]: 1 to 8 µg/mL (≈ 1.34 to 10.8 µM)
MIC [2, 31]: 8 to 16 µg/mL (≈ 10.8 to 21.5 µM)
MIC [2, 32]: 1 to 8 µg/mL (≈ 1.34 to 10.8 µM)
MIC [2, 33]: 16 to 32 µg/mL (≈ 21.5 to 43 µM)
MIC [2, 34]: 1 to 8 µg/mL (≈ 1.34 to 10.8 µM)
MIC [2, 35]: 1 to 8 µg/mL (≈ 1.34 to 10.8 µM)
MIC [2, 36]: ≤ 1 µg/mL
MIC [2, 37]: 1 to 8 µg/mL (≈ 1.34 to 10.8 µM)
MIC [2, 38]: ≤ 1 µg/mL
MIC [2, 39]: 1 to 8 µg/mL (≈ 1.34 to 10.8 µM)
MIC [2, 40]: ≤ 1 µg/mL
MIC [2, 41]: ≤ 1 µg/mL
MIC [2, 42]: ≤ 1 µg/mL
MIC [2, 43]: 1 to 8 µg/mL (≈ 1.34 to 10.8 µM)
MIC [2, 44]: ≤ 1 µg/mL
MIC [2, 45]: 1 to 8 µg/mL (≈ 1.34 to 10.8 µM)
MIC [2, 46]: 1 to 8 µg/mL (≈ 1.34 to 10.8 µM)
MIC [2, 47]: 8 to 16 µg/mL (≈ 10.8 to 21.5 µM)
MIC [2, 48]: 1 to 8 µg/mL (≈ 1.34 to 10.8 µM)
MIC [2, 49]: 8 to 16 µg/mL (≈ 10.8 to 21.5 µM)
MIC [2, 50]: ≤ 1 µg/mL
MIC [2, 51]: 16 to 32 µg/mL (≈ 21.5 to 43 µM)
MIC [2, 52]: ≤ 1 µg/mL
MIC [2, 53]: 16 to 32 µg/mL (≈ 21.5 to 43 µM)
MIC [2, 54]: ≤ 1 µg/mL
MIC [2, 55]: 1 to 8 µg/mL (≈ 1.34 to 10.8 µM)
MIC [2, 56]: ≤ 1 µg/mL
MIC [2, 57]: ≤ 1 µg/mL
MIC [2, 58]: ≤ 1 µg/mL

NC[C@H]1O[C@H](O[C@H]2[C@H](O)[C@@H](O[C@H]3O[C@H](CO)[C@@H](O)[C@H](N)[C@H]3O)[C@H](N)C[C@@H]2N)[C@H](N)C[C@@H]1O [TOB, tobramycin]
MIC [1, 3]: ≥ 32 µg/mL
MIC [1, 4]: 16 to 32 µg/mL (≈ 34.2 to 68.4 µM)
MIC [1, 5]: ≥ 32 µg/mL
MIC [1, 6]: ≥ 32 µg/mL
MIC [1, 7]: ≥ 32 µg/mL
MIC [1, 8]: ≥ 32 µg/mL
MIC [1, 9]: ≥ 32 µg/mL
MIC [1, 10]: ≥ 32 µg/mL
MIC [1, 11]: ≥ 32 µg/mL
MIC [1, 12]: ≥ 32 µg/mL
MIC [1, 13]: 8 to 16 µg/mL (≈ 17.1 to 34.2 µM)
MIC [1, 14]: ≥ 32 µg/mL
MIC [1, 15]: ≥ 32 µg/mL
MIC [1, 16]: ≥ 32 µg/mL
MIC [1, 17]: ≥ 32 µg/mL
MIC [1, 18]: ≥ 32 µg/mL
MIC [1, 19]: ≥ 32 µg/mL
MIC [1, 20]: ≥ 32 µg/mL
MIC [1, 21]: ≥ 32 µg/mL
MIC [1, 22]: 1 to 8 µg/mL (≈ 2.14 to 17.1 µM)
MIC [1, 23]: ≤ 1 µg/mL
MIC [1, 24]: ≤ 1 µg/mL
MIC [1, 25]: ≤ 1 µg/mL
MIC [1, 26]: ≤ 1 µg/mL
MIC [1, 27]: ≤ 1 µg/mL
MIC [1, 28]: ≤ 1 µg/mL
MIC [1, 29]: 1 to 8 µg/mL (≈ 2.14 to 17.1 µM)
MIC [2, 30]: ≥ 32 µg/mL
MIC [2, 31]: ≥ 32 µg/mL
MIC [2, 32]: ≥ 32 µg/mL
MIC [2, 33]: ≥ 32 µg/mL
MIC [2, 34]: ≥ 32 µg/mL
MIC [2, 35]: ≥ 32 µg/mL
MIC [2, 36]: 1 to 8 µg/mL (≈ 2.14 to 17.1 µM)
MIC [2, 37]: ≥ 32 µg/mL
MIC [2, 38]: ≥ 32 µg/mL
MIC [2, 39]: ≥ 32 µg/mL
MIC [2, 40]: ≥ 32 µg/mL
MIC [2, 41]: 16 to 32 µg/mL (≈ 34.2 to 68.4 µM)
MIC [2, 42]: ≤ 1 µg/mL
MIC [2, 43]: ≤ 1 µg/mL
MIC [2, 44]: ≤ 1 µg/mL
MIC [2, 45]: 1 to 8 µg/mL (≈ 2.14 to 17.1 µM)
MIC [2, 46]: ≤ 1 µg/mL
MIC [2, 47]: 1 to 8 µg/mL (≈ 2.14 to 17.1 µM)
MIC [2, 48]: ≤ 1 µg/mL
MIC [2, 49]: 1 to 8 µg/mL (≈ 2.14 to 17.1 µM)
MIC [2, 50]: ≥ 32 µg/mL
MIC [2, 51]: ≥ 32 µg/mL
MIC [2, 52]: ≥ 32 µg/mL
MIC [2, 53]: ≥ 32 µg/mL
MIC [2, 54]: ≤ 1 µg/mL
MIC [2, 55]: ≤ 1 µg/mL
MIC [2, 56]: ≤ 1 µg/mL
MIC [2, 57]: ≤ 1 µg/mL
MIC [2, 58]: ≤ 1 µg/mL
